# Values joined by “and” are separate entries in the source; they are usually repeats but may differ in a detail not shown here. Equal entries are not always repeated.
# Key:
# [1] = system: human mesenchymal stem cells (hMSC); assay: Osteogenic differentiation of hMSC (ALP activity, calcium deposition, Alizarin red S); type: cell-based; settings: for alp activity: FIG. 8D, osteogenic conditions; for osteogenesis: hMSC cultured under osteogenic conditions; for increased calcium deposition: pretreatment, day 17, XN 5 μM, cGS varying doses
# Method: Alkaline phosphatase activity (ALP/protein) was measured on day 8. Means that are not denoted with a common letter are different (p<0.001).
# (§1) In these further examples, post confluent hMSC were treated with varying doses of cGS or XN in adipogenic induction medium, and lipid deposition and cell viability were measured. Alternatively, pre-confluent hMSC were pre-treated with varying doses of cGS or XN for 3 days prior to addition of osteogenic induction medium. Alkaline phosphatase (ALP) activity was determined 3 days post-induction and indices of mineralization (calcium deposition and Alizarin red S stain) were determined 14-28 days post-induction. […] Inhibition was dose-dependent with ˜50% inhibition observed with 6.5 μM cGS and 0.75 μM XN, respectively. Pretreatment with cGS stimulated osteogenic differentiation in hMSC cultures as indicated by increased ALP activity at day 3 (˜10%; P<0.05) and calcium deposition at day 17 (˜35-60%; P<0.05). Pretreatment with 5 μM XN increased calcium deposition (33%; P<0.05) at day 17.
# [2] = system: human mesenchymal stem cells (hMSC); assay: Cell viability in hMSC osteogenic cultures; type: cell-based; settings: osteogenic conditions; varying doses of cGS; XN 20 μM
# Method: (§2) In these further examples, post confluent hMSC were treated with varying doses of cGS or XN in adipogenic induction medium, and lipid deposition and cell viability were measured. Alternatively, pre-confluent hMSC were pre-treated with varying doses of cGS or XN for 3 days prior to addition of osteogenic induction medium. Alkaline phosphatase (ALP) activity was determined 3 days post-induction and indices of mineralization (calcium deposition and Alizarin red S stain) were determined 14-28 days post-induction. […] P<0.05). Pretreatment with 5 μM XN increased calcium deposition (33%; P<0.05) at day 17.
# [3] = system: human mesenchymal stem cells (hMSC); assay: Cell viability in hMSC adipogenic cultures; type: cell-based; settings: adipogenic conditions; varying doses of cGS; XN 1.5-12 μM
# Method: as §2
# [4] = system: human mesenchymal stem cells (hMSC); assay: Lipid deposition / adipogenesis in hMSC under adipogenic conditions; type: cell-based; settings: for adipogenesis (lipid accumulation): hMSC cultured under adipogenic conditions
# Method: Cells were cultured in adipogenic induction medium and treated with control or the combination of R+Q+G (15 μM each). After 18 days adipogenesis was measured and expressed as % control. […] Means that are not denoted with a common letter are different p<0.05.
# as §1
# [5] = system: maturing 3T3-L1 preadipocytes; assay: Quantification of lipid content (AdipoRed/Nile Red) in maturing preadipocytes; type: cell-based, mouse; settings: 0.5 nM 1,25(OH)2D3 (D0.5), 3.12 μM GS (GS3.12), alone or combined; treated during adipogenic phase, measured day 6
# Method: (§3) 3T3-L1 mouse embryo fibroblasts were obtained from American Type Culture Collection (Manassas, Va.) and were cultured as described elsewhere. Briefly, cells were cultured in DMEM containing 10% bovine calf serum until confluent. Two days after confluence, the cells were stimulated to differentiate with DMEM containing 10% fetal bovine serum (FBS), 167 nM insulin, […], and 1 μM dexamethasone for 2 days. On day 2, differentiation medium was replaced with 10% FBS/DMEM containing 167 nM insulin and incubated for 2 days, followed by culturing with 10% FBS/DMEM for an additional 4 days, at which time >90% of cells were mature adipocytes with accumulated fat droplets. All media contained 1% penicillin streptomycin (10,000 U/ml) and 1% (v/v) 100 mM pyruvate. Cells were maintained at 37° C. in a humidified 5% CO2 atmosphere.
# Lipid content was quantified using commercially available AdipoRed™ Assay Reagent. In brief, maturing adipocytes grown in 96-well plates were incubated with vehicle or test compounds during the adipogenic phase and on day 6, culture supernatant was removed and lipid content was quantified by performing AdipoRed™ assay as per the manufacturer's instructions. Treated cells were also stained with Oil Red O and hematoxylin as described by Suryawan and Hu to visualize the lipid content. […]
# PPARγ = assay: Western blot, PPARγ expression in maturing 3T3-L1 preadipocytes; type: cell-based, mouse; settings: 0.5 nM 1,25(OH)2D3, 3.12 μM GS, alone or combined; days 0-6; vs control
# Method: (§4) The protein concentration was determined by BCA assay with bovine serum albumin as the standard. Western blot analysis was performed using the commercial NUPAGE system (Novex/Invitrogen), in which a lithium dodecyl sulfate sample buffer (Tris/glycerol buffer, pH 8.5) was mixed with fresh dithiothreitol and added to samples.
# (§5) Measurement of signal intensity on PVDF membranes after Western blotting with various antibodies was performed using a Fluor Chem densitomer with the Alpha-EaseFC image processing and analysis software (Alpha Innotech Corp.). For statistical analysis, all data were expressed as integrated density values (IDV), which were calculated as the density values of the specific protein bands/b-actin density values and expressed as percentage of the control. All figures showing quantitative analysis include data from at least three independent experiments.
# aP2 = assay: Western blot, aP2 expression in maturing 3T3-L1 preadipocytes; type: cell-based, mouse; settings: 0.5 nM 1,25(OH)2D3, 3.12 μM GS, alone or combined; days 0-6; vs control
# Method: as §4, §5
# C/EBPα = assay: Western blot, C/EBPα expression in maturing 3T3-L1 preadipocytes; type: cell-based, mouse; settings: 0.5 nM 1,25(OH)2D3, 3.12 μM GS, alone or combined; days 0-6; vs control
# Method: as §4, §5
# FXR = assay: Western blot, FXR expression in maturing 3T3-L1 preadipocytes; type: cell-based, mouse; settings: for increase in FXR levels: 3.12 μM GS
# Method: as §4, §5
# [6] = system: maturing 3T3-L1 preadipocytes; assay: Apoptosis assay (ApoStrand ssDNA ELISA) in maturing preadipocytes; type: cell-based, mouse; settings: 0.5 nM 1,25(OH)2D3, 3.12 μM GS, alone or combined
# Method: as §3
# Apoptosis assay. For measuring the extent of apoptosis, the ApoStrand ELISA Apoptosis Detection Kit (Biomol, Plymouth Meeting, Pa.) was used. Cells were grown in 96-well plates and incubated with either vehicle or test reagents for the indicated time periods. Cells were then fixed and assayed as per the manufacturer's instructions. The assay selectively detects single-stranded DNA, which occurs in apoptotic cells but not in necrotic cells or cells with DNA breaks in the absence of apoptosis.
# [7] = system: maturing 3T3-L1 preadipocytes; assay: Cell viability assay (CellTiter 96) in maturing preadipocytes; type: cell-based, mouse; settings: 0.5 nM 1,25(OH)2D3, 3.12 μM GS, alone or combined; 6 days during adipogenesis
# Method: as §3
# Tests were performed in 96-well plates. Two day postconfluent preadipocytes were treated with differentiation medium containing either vehicle or test compounds for 6 days during adipogenesis. On day 6 the treatment medium was removed and the cell viability assay was performed as per the manufacturer's instructions. The absorbance was measured at 490 nm in a plate reader (μQuant Bio-Tek Instruments, Winooski, Vt.) to determine the formazan concentration, which is proportional to the number of live cells.
# VDR = assay: Western blot, VDR expression in maturing 3T3-L1 preadipocytes; type: cell-based, mouse; settings: any time point (day 1, 4, 6); 3.12 μM GS
# Method: as §4, §5
# PPARs = settings: reference [20]; cited from earlier work
Compound,alp activity [1],osteogenesis [1],cell number (viability) [2],cell number (viability) [3],increased calcium deposition [1],adipogenesis (lipid accumulation) [4],decrease in lipid accumulation [5],decrease in expression of PPARγ (PPARγ),decrease in expression of aP2 (aP2),decrease in expression of C/EBPα (C/EBPα),increase in apoptosis [6],also measured
"O=c1c(-c2ccc(O)cc2)coc2cc(O)cc(O)c12 [genistein, 5,7-Dihydroxy-3-(4-hydroxyphenyl)chromen-4-one]",significantly increased alp activity,promoted osteogenesis,–,–,–,–,–,–,–,–,–,–
"COc1cc(O)c(CC=C(C)C)c(O)c1C(=O)/C=C/c1ccc(O)cc1 [XN, xanthohumol]",–,promoted osteogenesis,decreased viability,increased cell viability dose-dependently,33%,reduced adipogenesis,–,–,–,–,–,"inhibition at 0.75 µM ([4]; Homo sapiens, Mesenchymal stem cells, 6.5 μM cGS, 0.75 μM XN, adipogenic conditions): ~50%"
"O=c1c(O)c(-c2ccc(O)c(O)c2)oc2cc(O)cc(O)c12 [quercetin, 2-(3,4-dihydroxyphenyl)-3,5,7-trihydroxy-4H-chromen-4-one]",–,promoted osteogenesis,–,–,–,reduced adipogenesis,–,–,–,–,–,–
vitamin D [reference compound],–,promoted osteogenesis,–,–,–,–,–,–,–,–,–,–
"C=C1/C(=C\C=C2/CCC[C@]3(C)[C@@H]([C@H](C)CCCC(C)(C)O)CC[C@@H]23)C[C@@H](O)C[C@@H]1O [1,25(OH)2D3, 1,25-dihydroxy vitamin D3, reference compound]",significantly increased alp activity,–,–,–,–,–,29.3±3.4%,46.2±4.4% and 46%,27.2±4.8%,46.3±3.4% and 46%,18.4±2.3%,"effect on FXR levels (FXR; any time point, 0.5 nM 1,25(OH)2D3): no effect"
"C/C=C1\C(=O)C[C@H]2[C@@H]3CCC4=CC(=O)CC[C@]4(C)[C@H]3CC[C@]12C [GS, cis-Guggulsterone]",–,promoted osteogenesis,dose-dependent increase,dose-dependent increase,35-60%,reduced adipogenesis,29.7±2.7%,did not significantly alter,did not significantly alter,did not significantly alter,did not have any significant effect,"decrease in cell viability [7]: did not have any significant effect; effect on VDR expression (VDR): did not significantly alter; increased ALP activity ([1]; pretreatment 3 days before osteogenic induction, day 3 post-induction): ~10%; interaction with PPARs (PPARs): did not interact; inhibition of lipid deposition ([4]; 6.5 μM cGS, 0.75 μM XN, adipogenic conditions): ~50%; effect on FXR expression (FXR; day 1, 3.12 μM GS alone or with 0.5 nM 1,25(OH)2D3): did not have any significant effect; increase in FXR levels (FXR; day 4): 30.6±9.3%; increase in FXR levels (FXR; day 6): 64.8±10%"

# Reference: US20100093678A1, “Compositions and methods of the treatment of obesity and osteoporosis” (THE UNIVERSITY OF GEORGIA RESEARCH FOUNDATION, INC, priority 2008, published 2010)
